Measurements as given in US20120270819A1, “USE OF COMPOUNDS WITH SGLT-1/SGLT-2 INHIBITOR ACTIVITY FOR PRODUCING MEDICAMENTS FOR TREATMENT OF BONE DISEASE” (SANOFI, priority 2009, published 2012).

Tested on: female Sprague-Dawley mature and young adult rats
Assay: Ex vivo dual energy X-ray absorptiometry (DXA) of right femur, 28-day oral rat study
Type: in vivo
Experimental: The following were evaluated: clinical signs (at least weekly), body weight (weekly), food consumption (weekly), hormones (Days 13 and 27), serum and urinary biochemical markers of bone turnover (Days 13 and 27), serum chemistry (at necropsy), bone densitometry by dual energy X-ray absorptiometry (DXA) and peripheral quantitative computed tomography (pQCT) (Week 2 and 4, as well as ex vivo), macroscopic observations at necropsy, organ weights, histopathology, biomechanical strength testing and femoral length measurements.
3.1 Ex Vivo Dual Energy X-Ray Absorptiometry (DXA)
DXA was used to measure bone mineral density (BMD), bone mineral content (BMC) and area. Single DXA scans were obtained for the excised right femur from all animals euthanized at the end of the treatment period (except three animals due to damaged femoral condyles) as well as two found dead animals. These exclusions had no adverse impact on the overall outcome of the study as sufficient specimens were measured in each groups. Scans were performed with a Hologic Discovery A bone densitometer as per PCS-MTL Standard Operating Procedures.

[1] = Mature Adults, 10 mg/kg/day (Table 5a)
[2] = Mature Adults, 10 mg/kg/day, mean
[3] = Mature Adults, 10 mg/kg/day, mean (Table 5a)
[4] = Mature Adults, 50 mg/kg/day (Table 5a)
[5] = Mature Adults, 50 mg/kg/day, mean
[6] = Mature Adults, 50 mg/kg/day, mean (Table 5a)
[7] = Young Adults, 10 mg/kg/day (Table 6a)
[8] = Young Adults, 10 mg/kg/day, mean
[9] = Young Adults, 10 mg/kg/day, mean (Table 6a)
[10] = Young Adults, 50 mg/kg/day (Table 6a)
[11] = Young Adults, 50 mg/kg/day, mean
[12] = Young Adults, 50 mg/kg/day, mean (Table 6a)

Question: What does the source list for COc1ccc(Cc2c(OC3OC(CO)C(F)C(O)C3O)n[nH]c2C(F)(F)F)cc1 (stereo not drawn) [Example 5 of formula II]?
Answer: DXA femur Distal Area, percent difference from Vehicle Control (Mature Adults, 10 mg/kg/day): 1.7%; DXA femur Distal BMC, percent difference from Vehicle Control (Mature Adults, 10 mg/kg/day): 6.2%; DXA femur Distal BMD, percent difference from Vehicle Control (Mature Adults, 10 mg/kg/day): 4.4%; DXA femur Global Area, percent difference from Vehicle Control (Mature Adults, 10 mg/kg/day): 1.9%; DXA femur Global BMC, percent difference from Vehicle Control (Mature Adults, 10 mg/kg/day): 6.0%; DXA femur Global BMD, percent difference from Vehicle Control (Mature Adults, 10 mg/kg/day): 4.0%; DXA femur Mid Area, percent difference from Vehicle Control (Mature Adults, 10 mg/kg/day): 3.9%; DXA femur Mid BMC, percent difference from Vehicle Control (Mature Adults, 10 mg/kg/day): 6.4%; DXA femur Mid BMD, percent difference from Vehicle Control (Mature Adults, 10 mg/kg/day): 2.4%; DXA femur Proximal Area, percent difference from Vehicle Control (Mature Adults, 10 mg/kg/day): 2.4%; DXA femur Proximal BMC, percent difference from Vehicle Control (Mature Adults, 10 mg/kg/day): 6.1%; DXA femur Proximal BMD, percent difference from Vehicle Control (Mature Adults, 10 mg/kg/day): 3.7%; DXA femur Mid Area, percent difference from Vehicle Control [1]: 3.86%; DXA femur Mid BMC, percent difference from Vehicle Control [1]: 6.45%; DXA femur Mid BMD, percent difference from Vehicle Control [1]: 2.35%; DXA femur Distal Area [2]: 0.41 cm^2; DXA femur Distal BMC [2]: 0.14 g; DXA femur Distal BMD [2]: 0.34 g/cm^2; DXA femur Global Area [2]: 1.91 cm^2; DXA femur Global BMC [2]: 0.52 g; DXA femur Global BMD [2]: 0.27 g/cm^2; DXA femur Mid Area [2]: 0.45 cm^2; DXA femur Mid BMC [2]: 0.11 g; DXA femur Mid BMD [2]: 0.24 g/cm^2; DXA femur Proximal Area [2]: 0.63 cm^2; DXA femur Proximal BMC [2]: 0.18 g; DXA femur Proximal BMD [2]: 0.28 g/cm^2; DXA femur Mid Area [3]: 0.45 cm^2; DXA femur Mid BMC [3]: 0.11 g; DXA femur Mid BMD [3]: 0.24 g/cm^2; DXA femur Distal Area, percent difference from Vehicle Control (Mature Adults, 50 mg/kg/day): −0.1%; DXA femur Distal BMC, percent difference from Vehicle Control (Mature Adults, 50 mg/kg/day): 8.3%; DXA femur Distal BMD, percent difference from Vehicle Control (Mature Adults, 50 mg/kg/day): 8.4%; DXA femur Global Area, percent difference from Vehicle Control (Mature Adults, 50 mg/kg/day): −1.2%; DXA femur Global BMC, percent difference from Vehicle Control (Mature Adults, 50 mg/kg/day): 3.7%; DXA femur Global BMD, percent difference from Vehicle Control (Mature Adults, 50 mg/kg/day): 5.0%; DXA femur Mid Area, percent difference from Vehicle Control (Mature Adults, 50 mg/kg/day): −1.0%; DXA femur Mid BMC, percent difference from Vehicle Control (Mature Adults, 50 mg/kg/day): 1.2%; DXA femur Mid BMD, percent difference from Vehicle Control (Mature Adults, 50 mg/kg/day): 2.3%; DXA femur Proximal Area, percent difference from Vehicle Control (Mature Adults, 50 mg/kg/day): 0.1%; DXA femur Proximal BMC, percent difference from Vehicle Control (Mature Adults, 50 mg/kg/day): 3.0%; DXA femur Proximal BMD, percent difference from Vehicle Control (Mature Adults, 50 mg/kg/day): 2.9%; DXA femur Mid Area, percent difference from Vehicle Control [4]: −0.97%; DXA femur Mid BMC, percent difference from Vehicle Control [4]: 1.25%; DXA femur Mid BMD, percent difference from Vehicle Control [4]: 2.26%; DXA femur Distal Area [5]: 0.41 cm^2; DXA femur Distal BMC [5]: 0.14 g; DXA femur Distal BMD [5]: 0.35 g/cm^2; DXA femur Global Area [5]: 1.85 cm^2; DXA femur Global BMC [5]: 0.51 g; DXA femur Global BMD [5]: 0.27 g/cm^2; DXA femur Mid Area [5]: 0.43 cm^2; DXA femur Mid BMC [5]: 0.11 g; DXA femur Mid BMD [5]: 0.24 g/cm^2; DXA femur Proximal Area [5]: 0.61 cm^2; DXA femur Proximal BMC [5]: 0.17 g; DXA femur Proximal BMD [5]: 0.28 g/cm^2; DXA femur Mid Area [6]: 0.43 cm^2; DXA femur Mid BMC [6]: 0.11 g; DXA femur Mid BMD [6]: 0.24 g/cm^2; DXA femur Distal Area, percent difference from Vehicle Control (Young Adults, 10 mg/kg/day): 1.7%; DXA femur Distal BMC, percent difference from Vehicle Control (Young Adults, 10 mg/kg/day): 6.4%; DXA femur Distal BMD, percent difference from Vehicle Control (Young Adults, 10 mg/kg/day): 4.7%; DXA femur Global Area, percent difference from Vehicle Control (Young Adults, 10 mg/kg/day): −2.5%; DXA femur Global BMC, percent difference from Vehicle Control (Young Adults, 10 mg/kg/day): 0.5%; DXA femur Global BMD, percent difference from Vehicle Control (Young Adults, 10 mg/kg/day): 3.2%; DXA femur Mid Area, percent difference from Vehicle Control (Young Adults, 10 mg/kg/day): −0.9%; DXA femur Mid BMC, percent difference from Vehicle Control (Young Adults, 10 mg/kg/day): −2.6%; DXA femur Mid BMD, percent difference from Vehicle Control (Young Adults, 10 mg/kg/day): −1.9%; DXA femur Proximal Area, percent difference from Vehicle Control (Young Adults, 10 mg/kg/day): −2.6%; DXA femur Proximal BMC, percent difference from Vehicle Control (Young Adults, 10 mg/kg/day): −0.8%; DXA femur Proximal BMD, percent difference from Vehicle Control (Young Adults, 10 mg/kg/day): 1.8%; DXA femur Mid Area, percent difference from Vehicle Control [7]: −0.89%; DXA femur Mid BMC, percent difference from Vehicle Control [7]: −2.61%; DXA femur Mid BMD, percent difference from Vehicle Control [7]: −1.87%; DXA femur Distal Area [8]: 0.37 cm^2; DXA femur Distal BMC [8]: 0.10 g; DXA femur Distal BMD [8]: 0.26 g/cm^2; DXA femur Global Area [8]: 1.45 cm^2; DXA femur Global BMC [8]: 0.30 g; DXA femur Global BMD [8]: 0.21 g/cm^2; DXA femur Mid Area [8]: 0.39 cm^2; DXA femur Mid BMC [8]: 0.07 g; DXA femur Mid BMD [8]: 0.17 g/cm^2; DXA femur Proximal Area [8]: 0.50 cm^2; DXA femur Proximal BMC [8]: 0.11 g; DXA femur Proximal BMD [8]: 0.22 g/cm^2; DXA femur Mid Area [9]: 0.39 cm^2; DXA femur Mid BMC [9]: 0.07 g; DXA femur Mid BMD [9]: 0.17 g/cm^2; DXA femur Distal Area, percent difference from Vehicle Control (Young Adults, 50 mg/kg/day): 0.5%; DXA femur Distal BMC, percent difference from Vehicle Control (Young Adults, 50 mg/kg/day): 8.4%; DXA femur Distal BMD, percent difference from Vehicle Control (Young Adults, 50 mg/kg/day): 7.9%; DXA femur Global Area, percent difference from Vehicle Control (Young Adults, 50 mg/kg/day): −4.7%; DXA femur Global BMC, percent difference from Vehicle Control (Young Adults, 50 mg/kg/day): 0.0%; DXA femur Global BMD, percent difference from Vehicle Control (Young Adults, 50 mg/kg/day): 4.9%; DXA femur Mid Area, percent difference from Vehicle Control (Young Adults, 50 mg/kg/day): −0.8%; DXA femur Mid BMC, percent difference from Vehicle Control (Young Adults, 50 mg/kg/day): −3.2%; DXA femur Mid BMD, percent difference from Vehicle Control (Young Adults, 50 mg/kg/day): −2.6%; DXA femur Proximal Area, percent difference from Vehicle Control (Young Adults, 50 mg/kg/day): −4.9%; DXA femur Proximal BMC, percent difference from Vehicle Control (Young Adults, 50 mg/kg/day): −4.0%; DXA femur Proximal BMD, percent difference from Vehicle Control (Young Adults, 50 mg/kg/day): 1.0%; DXA femur Mid Area, percent difference from Vehicle Control [10]: −0.77%; DXA femur Mid BMC, percent difference from Vehicle Control [10]: −3.16%; DXA femur Mid BMD, percent difference from Vehicle Control [10]: −2.62%; DXA femur Distal Area [11]: 0.37 cm^2; DXA femur Distal BMC [11]: 0.10 g; DXA femur Distal BMD [11]: 0.27 g/cm^2; DXA femur Global Area [11]: 1.42 cm^2; DXA femur Global BMC [11]: 0.30 g; DXA femur Global BMD [11]: 0.21 g/cm^2; DXA femur Mid Area [11]: 0.39 cm^2; DXA femur Mid BMC [11]: 0.07 g; DXA femur Mid BMD [11]: 0.17 g/cm^2; DXA femur Proximal Area [11]: 0.49 cm^2; DXA femur Proximal BMC [11]: 0.11 g; DXA femur Proximal BMD [11]: 0.21 g/cm^2; DXA femur Mid Area [12]: 0.39 cm^2; DXA femur Mid BMC [12]: 0.07 g; DXA femur Mid BMD [12]: 0.17 g/cm^2
